The values below come from patent US6218431A, “Substituted biphenyls” (Bayer Corporation, priority 1997, dated 2001).

SMILES strings stand for the structures.

For the first test, the target named is T1, glucagon receptor (Homo sapiens, UniProt P47871).
T1 construct: expressed in transfected cells; host or cells: Chinese Hamster Ovary cells (CHO-HGR), membranes
T1 sequence (P47871 26-477): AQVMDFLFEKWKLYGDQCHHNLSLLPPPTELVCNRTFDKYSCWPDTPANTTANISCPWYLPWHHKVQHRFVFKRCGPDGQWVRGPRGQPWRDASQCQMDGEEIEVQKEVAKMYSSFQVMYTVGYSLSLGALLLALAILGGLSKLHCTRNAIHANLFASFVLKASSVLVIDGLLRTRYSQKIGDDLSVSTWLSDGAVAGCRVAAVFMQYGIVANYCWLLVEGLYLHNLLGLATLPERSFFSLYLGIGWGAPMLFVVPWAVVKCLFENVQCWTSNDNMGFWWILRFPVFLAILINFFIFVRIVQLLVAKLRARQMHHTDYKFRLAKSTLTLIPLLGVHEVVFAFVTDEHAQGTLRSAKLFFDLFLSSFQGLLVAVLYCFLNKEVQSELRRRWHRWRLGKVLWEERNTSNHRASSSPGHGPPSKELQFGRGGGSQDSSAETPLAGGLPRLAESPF
Description: glucagon receptor binding assay (125I-glucagon, CHO-HGR membranes). The note with it: 20 μM; reported where 20 μM did not reduce glucagon binding by 50%. The protocol: The affinity for the glucagon receptor of compounds of the present invention is determined by the glucagon receptor binding assay. Membranes were prepared from Chinese Hamster Ovary cells expressing the glucagon receptor (CHO-HGR) by scraping the cells into hypotonic lysis buffer (10 mM Tris, pH 7.4, 2 mM EDTA, 5 mM MgCl2 and 1 mM PMSF) and subjecting the material to Polytron homogenization. Nuclei were removed by a 15-min 800×g centrifugation step conducted at 4° C. Membranes containing the receptor were collected by centrifugation at 15,000×gfor 15 min at 4° C. The membranes were washed once in lysis buffer and suspended in 0.25 M sucrose, 10 mM Tris, 5 mM EDTA, pH 7.4. The membranes were used in ligand binding studies as reported (Yoo-Warren, H., Willse, A. G., Hancock, N., Hull, J., McCaleb, M., and Livingston, J. Regulation of Rat Glucagon Receptor Expression. Biochem. Biophysical Res. Commun. 1994, 205, 347-353). In brief, 10 ug of membrane protein was incubated in 130 μl of binding buffer that consisted of 20 mM Tris, […], 1 mM EDTA, 1 mg/ml BSA, and 1 mg/ml bacitracin. The membrane suspension was placed in each well of a 96-well filtration plate (glass fiber type C, Millipore). […] Following the addition of test compound, 50 μl of ^125 I-glucagon (9 fmol) (NEN) was added to each well. Control wells contained membranes, 0.5% DMSO (solvent for test compounds), radiolabeled glucagon without and with excess native glucagon (1 μM) to establish nonspecific binding. The plates were incubated for 60 min at room temperature, and then filtered on a Mllipore vacuum apparatus. Following a wash step with ice-cold PBS/0.1% BSA, the filters were punched into test tubes, and the membrane bound radioactivity was determined.
Broadly, the inhibition is the drop in the measured response relative to a control, in per cent. Low readings indicate a response near the control, high ones a response far below the control. The molecule `CC(C)c1nc(C(C)C)c(C(C)O)c(-c2ccc(F)cc2)c1CO` (racemic) [Example 93, (±)-2,6-Diisopropyl-3-hydroxymethyl-4-(4-fluorophenyl-5-(1-hydroxy-ethyl)pyridine] gave an inhibition at 20 µM of 28.3%. Same read-out and setting: for `CCC(O)c1c(C(C)C)nc(C(C)C)c(CO)c1-c1ccc(F)cc1` (racemic) [Example 94, (±)-2,6-Diisopropyl-3-hydroxymethyl-4-(4-fluorophenyl)-5-(1-hydroxy-propyl)pyridine] the value was 38.5%.

For `CCCCC(O)c1c(C(C)C)nc(C(C)C)c(CO)c1-c1ccc(F)cc1` (racemic) [Example 95, (±)-2,6-Diisopropyl-3-hydroxymethyl-4-(4-fluorophenyl)-5-(1-hydroxy-pentyl)pyridine], testing at 20 µM gave an inhibition of 26.5%. The same measure, in the same setting: the value for `CC(C)c1nc(C(C)C)c(C(O)c2ccccc2)c(-c2ccc(F)cc2)c1CO` (racemic) [Example 96, (±)-2,6-Diisopropyl-3-hydroxymethyl-4-(4-fluorophenyl)-5-(hydroxy-phenylmethyl)pyridine] was 27.8%. Regarding `CC(C)c1nc(C(C)C)c(C(O)C(C)C)c(-c2ccc(F)cc2)c1CO` (racemic) [Example 97, (±)-2,6-Diisopropyl-3-hydroxymethyl-4-(4-fluorophenyl)-5-[(1-hydroxy-2-methyl)propyl]pyridine], the inhibition at 20 µM came to 29.2%.

Take `CCC(OC)c1c(C(C)C)nc(C(C)C)c(CO)c1-c1ccc(F)cc1` (racemic) [Example 99, (±)-2,6-Diisopropyl-3-hydroxymethyl-4-(4-fluorophenyl)-5-(1-methoxy-5-propyl)pyridine]: testing at 20 µM gave an inhibition of 43.2%. The same measure, in the same setting: for `CCCCC(OC)c1c(C(C)C)nc(C(C)C)c(CO)c1-c1ccc(F)cc1` (racemic) [Example 100, (±)-2,6-Diisopropyl-3-hydroxymethyl-4-(4-fluorophenyl)-5-(1-methoxy-pentyl)pyridine] the value was 39.6%. On the same count and under the same terms, for `C=CC(O)c1c(C(C)C)nc(C(C)C)c(CCCCC)c1-c1ccc(F)cc1` (racemic) [Example 114, (±)-2,6-Diisopropyl-3-(1-hydroxy-2-propenyl)-4-(4-fluorophenyl)-5-pentylpyridine] the value was 38.5%; for `CCCCCc1c(C(C)C)nc(C(C)C)c(C(O)CCCC)c1-c1ccc(F)cc1` (racemic) [Example 115, (±)-2,6-Diisopropyl-3-(1-hydroxypentyl)-4-(4-fluorophenyl)-5pentyl-pyridine], 21.1%; for `C=CCC(O)c1c(C(C)C)nc(C(C)C)c(CCCCC)c1-c1ccc(F)cc1` (racemic) [Example 116], 17%. On the same count and under the same terms, for `CCCCCc1c(C(C)C)nc(C(C)C)c(C(O)CC)c1-c1ccc(F)cc1` (racemic) [Example 117] the value was 45.1%. For `CCCCCc1c(C(C)C)nc(C(C)C)c(C(O)C[S@+]([O-])c2ccc(C)cc2)c1-c1ccc(F)cc1` (single isomer, unassigned) [Example 112], at 20 µM the inhibition was 4.17%.

In the case of `CC(C)=Cc1c(C)nc(C)c(CO)c1-c1ccccc1` [Example 2], the inhibition at 20 µM turned out to be 2.73%. Same read-out and setting: the value for `CCCC=Cc1c(C)nc(C)c(CO)c1-c1ccccc1` [Example 3] was 1.52%; that for `CCCCCc1c(C)nc(C)c(CO)c1-c1ccccc1` [Example 4] was 1.98%. Take `CCc1nc(CC)c(CO)c(-c2ccccc2)c1C=C(C)C` [Example 5]: 20 µM produced 12.4% inhibition.

`CCCC=Cc1c(CC)nc(CC)c(CO)c1-c1ccccc1` [Example 6] had an inhibition at 20 µM of 34.2%. The same measure, in the same setting: the value for `C=Cc1c(CC)nc(CC)c(CO)c1-c1ccccc1` [Example 8] was 17%. In the case of `CCc1nc(CC)c(CO)c(-c2ccccc2)c1CC` [Example 9], the inhibition at 20 µM turned out to be 16.6%.

Still in this test, the particulars now being: 125I-glucagon; 60 min at room temperature; read-out: IC50.
For orientation: IC50 means the midpoint of a concentration-inhibition curve. With `COC(C)c1c(C(C)C)nc(C(C)C)c(CO)c1-c1ccc(F)cc1` (racemic) [Example 98, (±)-2,6-Diisopropyl-3-hydroxymethyl-4-(4-fluorophenyl)-5-(1-methoxyethyl)pyridine], the half-maximal inhibitory concentration (IC50) was 14000 nM. The same measure, in the same setting: the value for `CC(C)c1nc(C(C)C)c(C(C)O)c(-c2ccc(F)cc2)c1CSc1ccccc1` (racemic) [Example 113, (±)-2,6-Diisopropyl-3-(1-hydroxyethyl)-4-(4-fluorophenyl)-5-phenylthio-methylpyridine] was 600 nM. For the molecule `CCCCCc1c(C(C)C)nc(C(C)C)c(C(O)C(F)(F)F)c1-c1ccc(F)cc1` (racemic) [Example 118, (±)-2,6-Diisopropyl-3-(2,2,2-trifluoro-1-hydroxy)ethyl-4-(4-fluoro-phenyl)-5-pentylpyridine], the concentration for half-maximal inhibition (IC50) came out at 13000 nM.

Turning to `CCCCCc1c(C(C)C)nc(C(C)C)c(C(O)CO)c1-c1ccc(F)cc1` (racemic) [Example 124, (±)-2,6-Diisopropyl-3-(1,2-dihydroxyethyl)-4-(4-fluorophenyl)-5-pentyl-pyridine], the 50% inhibitory concentration (IC50) worked out at 12000 nM. Consider `CCCc1c(C(C)C)nc(C(C)C)c(CO)c1-c1ccc(F)cc1O` (racemic) [Example 239-rac, 2,6-Diisopropyl-3-(1-hydroxymethyl)-4-(4-fluoro-2-hydroxyphenyl)-5-propylpyridine], for which the 50% inhibitory concentration (IC50) came out at 80 nM. Same read-out and setting: for `CCCc1c(C(C)C)cc(C(C)C)c(CO)c1-c1ccc(F)cc1O` (racemic) [Example 241, 3,5-Diisopropyl-2-hydroxymethyl-6-propyl-4'-fluoro-2'-hydroxy-1,1'-biphenyl] the value was 110 nM; for `CCCCCc1c(C(C)C)nc(C(C)C)c(C(C)O)c1-c1ccc(F)cc1` (single isomer, unassigned) [Example 107, 2,6-Diisopropyl-3-(1-hydroxyethyl-4-fluorophenyl)-5-pentylpyridine], 3000 nM. Regarding `CCCCCc1c(C(C)C)nc(C(C)C)c(C(C)O)c1-c1ccccc1O` (single isomer, unassigned) [Example 164-D1, 2,6-Diisopropyl-3-(1-hydroxyethyl)-4-(2-hydroxyphenyl)-5-pentylpyridine], the IC50 worked out at 45 nM. On the same count and under the same terms, for `CCCCCc1c(C(C)C)nc(C(C)C)c(C(C)O)c1-c1ccccc1O` (single isomer, unassigned) [Example 164-D2, 2,6-Diisopropyl-3-(1-hydroxyethyl)-4-(2-hydroxyphenyl)-5-pentylpyridine] the value was 100 nM; for `CCCc1c(C(C)C)nc(C(C)C)c(CO)c1-c1ccc(F)cc1O` (single isomer, unassigned) [Example 239-E1, 2,6-Diisopropyl-3-(1-hydroxymethyl)-4-(4-fluoro-2-hydroxyphenyl)-5-propylpyridine], 2500 nM; for `CCCc1c(C(C)C)nc(C(C)C)c(CO)c1-c1ccc(F)cc1O` (single isomer, unassigned) [Example 239-E2, 2,6-Diisopropyl-3-(1-hydroxymethyl)-4-(4-fluoro-2-hydroxyphenyl)-5-propylpyridine], 50 nM. Regarding `CCCCCc1c(C(C)C)cc(C(C)C)c(C(C)O)c1-c1ccc(F)cc1` (single isomer, unassigned; (+)) [Example 193, (+)-3,5-Diisopropyl-2-(1-hydroxyethyl)-6-pentyl-4'-fluoro-1,1-biphenyl], the half-maximal inhibitory concentration (IC50) was found to be 86 nM.

Turning to `CCCCCc1c(C(C)C)cc(C(C)C)c(C(C)O)c1-c1ccc(F)cc1` (single isomer, unassigned; (+)) [Example 243, (+)-3,5-Diisopropyl-2-(1-hydroxyethyl)-6-pentyl-4'-fluoro-1,1'-biphenyl], the IC50 is 86 nM.

As for `CCc1c(C(C)C)cc(C(C)C)c(C(C)O)c1-c1ccc(F)cc1` (single isomer, unassigned; (+)) [Example 244, (+)-3,5-Diisopropyl-2-(1-hydroxyethyl)-6-ethyl-4'-fluoro-1,1'-biphenyl], the 50% inhibitory concentration (IC50) is 180 nM. Take `CCCc1c(C(C)C)cc(C(C)C)c(C(C)O)c1-c1ccc(F)cc1` (single isomer, unassigned; (+)) [Example 245, (+)-3,5-Diisopropyl-2-(1-hydroxyethyl)-6-propyl-4'-fluoro-1,1'-biphenyl]: the half-inhibitory concentration (IC50) was determined as 300 nM.

Take `Cc1ccc(COCc2c(C(C)C)cc(C(C)C)c(C(C)O)c2-c2ccc(F)cc2)cc1` (single isomer, unassigned; (+)) [Example 248, (+)-3,5-Diisopropyl-2-[(p-methylbenzyloxy)methyl]-6-(1-hydroxyethyl)-4'-fluoro-1,1'-biphenyl]: the half-maximal inhibitory concentration (IC50) was 310 nM. Same read-out and setting: for `Cc1ccc(SCc2c(C(C)C)cc(C(C)C)c(C(C)O)c2-c2ccc(F)cc2)cc1` (single isomer, unassigned; (+)) [Example 249, (+)-3,5-Diisopropyl-2-[(p-tolylthio)methyl]-6-(1-hydroxyethyl)-4'-fluoro-1,1'-biphenyl] the value was 130 nM.

As to `CCCCCc1c(C(C)C)nc(C(C)C)c(CO)c1-c1ccc(F)cc1` [Example 1], the IC50 is 600 nM. Consider `CC(C)=Cc1c(C(C)C)nc(C(C)C)c(CO)c1-c1ccccc1` [Example 11], for which the half-maximal inhibitory concentration (IC50) is 8000 nM.
